Source: PubChem BioAssay (NCI)
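Tested at 5 concentrations; 48 h exposure; 96-well plates; endpoints linearly interpolated, else capped at highest concentration. The concentration for 50% growth inhibition is given as GI50. At the TGI there is no net growth.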

Legend:
Assay in all cases: NCI anticancer screen, dose series, 48 h
SNB-78 CNS = system: SNB-78 CNS
KM12 colon = system: KM12 colon
CCRF-CEM leukemia = system: CCRF-CEM leukemia
SF-295 CNS = system: SF-295 CNS
OVCAR-5 ovarian = system: OVCAR-5 ovarian
A549 NSCLC = system: A549 NSCLC
COLO 205 colon = system: COLO 205 colon
M14 melanoma = system: M14 melanoma
HL-60(TB) leukemia = system: HL-60(TB) leukemia
SK-MEL-28 melanoma = system: SK-MEL-28 melanoma
RPMI-8226 leukemia = system: RPMI-8226 leukemia
DMS 114 small cell lung = system: DMS 114 small cell lung
MALME-3M melanoma = system: MALME-3M melanoma
CAKI-1 renal = system: CAKI-1 renal

SMILES	TGI (SNB-78 CNS) [µM]	TGI (KM12 colon) [µM]	TGI (CCRF-CEM leukemia) [µM]	TGI (SF-295 CNS) [µM]	TGI (OVCAR-5 ovarian) [µM]	TGI (A549 NSCLC) [µM]	TGI (COLO 205 colon) [µM]	TGI (M14 melanoma) [µM]	TGI (HL-60(TB) leukemia) [µM]	TGI (SK-MEL-28 melanoma) [µM]	TGI (RPMI-8226 leukemia) [µM]	TGI (DMS 114 small cell lung) [µM]	TGI (MALME-3M melanoma) [µM]	TGI (CAKI-1 renal) [µM]	GI50 (KM12 colon) [µM]	GI50 (SF-295 CNS) [µM]	GI50 (COLO 205 colon) [µM]	GI50 (HL-60(TB) leukemia) [µM]	GI50 (SK-MEL-28 melanoma) [µM]	GI50 (CCRF-CEM leukemia) [µM]
CCOC(C)OC1CC(n2cc(C)c(=O)[nH]c2=O)OC1CO (stereo not given)	> 100	> 100	> 100	> 100	> 100	> 100	> 100	> 100	> 100	> 100	> 100	> 100	> 100							
CCOC(=O)Cn1c(=O)c(C)cn(COCCO)c1=O		> 100			> 100	> 100	> 100	> 100	> 100	> 100	> 100		> 100	> 100						
CN1CN(C(=O)N2CN(C)C(=O)N(C)C2)CN(C)C1=O	> 100	> 100	> 100	> 100	> 100	> 100	> 100	> 100	> 100	> 100	> 100	> 100	> 100	> 100						
CC1OC(=O)C(C(C)C)NC(=O)C(C(C)C)OC(=O)C(C(C)C)NC(=O)C(C)OC(=O)C(C(C)C)NC(=O)C(C(C)C)OC(=O)C(C(C)C)NC(=O)C(C)OC(=O)C(C(C)C)NC(=O)C(C(C)C)OC(=O)C(C(C)C)NC1=O (stereo not given)	4.46		4.2			2.98				5.63	0.0158	0.0191	3.63	0.00345	< 0.0001	< 0.0001	< 0.0001	< 0.0001	< 0.0001	
CCOC(=O)C1=C(C)N(C2OC(COC(=O)c3ccccc3)C(OC(=O)c3ccccc3)C2OC(=O)c2ccccc2)C(=S)NC1c1ccccc1 (stereo not given)	> 100	> 100	> 100	> 100	> 100	> 100	> 100	93.2	33.9	> 100	45.2	97.2	78.8	79.4						
CCN(CC)CCO[Si](OCCN(CC)CC)(OCCN(CC)CC)OCCN(CC)CC		> 100		> 100	> 100	> 100	> 100	> 100		> 100		> 100	> 100	> 100						
O=C(CCC1CCCCN1)Nc1ccc2c(c1)C(=O)c1ccc(NC(=O)CCN3CCCCC3)cc1C2=O (stereo not given)	> 100	6.99	4.86	20.8	11.2	33.4	2.65	2.8		3.77		2.97	2.81	5.61						1.12
CN/N=C(\C(=O)Nc1ccc(C)c(C)c1)C(C(=O)OC)c1nc2ccc([N+](=O)[O-])cc2[nH]c1=O (stereo not given)	> 100	> 100	> 100	> 100	> 100	> 100	> 100	> 100	> 100	> 100	> 100	> 100		> 100						
